Data on 7 compounds can be found in US20100209484A1, “Transdermal Triptan Delivery System” (priority 2009, published 2010).

The conditions of series [1]: cited from earlier work.
The nature of series [2]: Physical observation of patches by eye or microscope. Format: physicochemical. From the text: Permeation is increased for a given concentration of triptan if the triptan is in solution in the matrix. The patches of Table 9 were stored at the room temperature for the designated period of time then observed by eye or/and a microscope. No crystals or white spots have been observed, and the patches are clear. […] This function has not previously been known for this class of compounds.

Series [3] can be described thus: Solubility of zolmitriptan in pressure sensitive adhesive matrixes. The format is physicochemical. The settings on record: silicone and PIB adhesive matrixes.
For series [4] the following is noted: cited from earlier work. The source holds these as a separate data set.
For series [5], the system named is isolated hairless mouse skin. Put plainly: Skin permeation rate, flow-through diffusion cells. To be noted: for Flux / Lag time: n = 3. Format: in vitro ADME. The protocol:
Skin permeation rates of various zolmitriptan/enhancer formulations were determined using flow through diffusion cells. Permeation experiments were done on isolated hairless mouse skin. A system comprising a multi channel peristaltic pump, a fraction collector, a circulating water bath and flow-through diffusion cells was used. Each flow-through cell had two arms, which allowed the receiver cell medium pumped to a fraction collector. The diffusion cell temperature was maintained at 37° C. by circulating water through the outer part of jacketed receiver cell. The surface area of receiver cell opening as 2 cm^2, and its volume was 5.5 ml Skin was excised from hairless mouse that was sacrificed with diethyl ether. Subcutaneous fat was removed with scissors and scalpel. Each of the flow-through diffusion cell components was connected via silicone rubber tubing with an internal diameter of 0.015 inches. The receiver cell was filled with a pH 6 buffer solution and the media stirred by Teflon-coated magnetic bar. The transdermal device was placed on the stratum corneum and the excised skin was mounted onto each receiver cell. And O-ring and cell top was placed on the top of each skin. These components are then clamped. The amount of drug permeated across the skin was calculated from the cumulative release. The samples were collected every 4 hours for 24 hours and assayed by HPLC. This method was used to measure skin permeation rates referred to as transdermal flux or flux in the examples. Zolmitriptan was analyzed by an HPLC system (Shimadzu Scientific Instruments, MD), consisting of a UV detector (SPD-10A), reversed-phase C8 column, a pump (LC-10AD), and an automatic injector (SIL-10A). The method had been previously described (Vyas et. al., 2005). Briefly, the wavelength of the UV detector was 229 nm, the column temperature was maintained at 30° C., the flow rate was 1 ml/min and injection volume was 10 μl. The mobile phase used consisted of acetonitrile/phosphate buffer pH 7.5 (15/85).

The mark [6] stands for this setting: acrylic adhesive matrix without functional group, zolmitriptan 4 wt%.
Where [7] appears, read: adhesive matrix 87-2287 (hydroxyl functional group), zolmitriptan 4 wt%.
[8] abbreviates: adhesive matrix 87-2510 (hydroxyl functional group), zolmitriptan 4 wt%.
Setting [9] is: adhesive matrix 87-2516 (hydroxyl functional group), zolmitriptan 4 wt%.
The mark [10] stands for this setting: drug concentration 4 wt% in 87-2510 matrix.
Setting [11] is: drug concentration 5 wt% in 87-2510 matrix.
Where [12] appears, read: drug concentration 7.5 wt% in 87-2510 matrix.
Where [13] appears, read: drug concentration 10 wt% in 87-2510 matrix.
Where [14] appears, read: matrix thickness 25 μm, 4% drug loading, 87-2510.
Setting [15] is: matrix thickness 60 μm, 4% drug loading, 87-2510.
Where [16] appears, read: matrix thickness 95 μm, 4% drug loading, 87-2510.
The mark [17] stands for this setting: matrix thickness 130 μm, 4% drug loading, 87-2510.
[18] abbreviates: matrix thickness 165 μm, 4% drug loading, 87-2510.

The term pKa denotes the pH at which an ionisable group is half protonated.

Molecules are shown by their SMILES. Like-named read-outs stand apart in the source and are kept apart here.

As to `CN(C)CCc1c[nH]c2ccc(CS(=O)(=O)N3CCCC3)cc12` [Almotriptan], the “bioavailable amount after oral ingestion” value in series [1] was 69%.
In the case of `CN1CCC[C@@H]1Cc1c[nH]c2ccc(CCS(=O)(=O)c3ccccc3)cc12` [Eletriptan], the “bioavailable amount after oral ingestion” value in series [1] is reported as 50%.
As for `CN[C@@H]1CCc2[nH]c3ccc(C(N)=O)cc3c2C1` [Frovatriptan], the figures for the “bioavailable amount after oral ingestion” value in series [1] (in females) and in series [1] (in males) were 30% and 24%, respectively.
Take `CNS(=O)(=O)CCc1ccc2[nH]cc(C3CCN(C)CC3)c2c1` [Naratriptan]: the “bioavailable amount after oral ingestion” value in series [1] (in females) is on record as 74%; in series [1] (in males) it was 63%.
On to `CN(C)CCc1c[nH]c2ccc(Cn3cncn3)cc12` [Rizatriptan], for which, in series [1], the “bioavailable amount after oral ingestion” value was 47%.
Consider `CNS(=O)(=O)Cc1ccc2[nH]cc(CCN(C)C)c2c1` [Sumatriptan], for which, in series [1], the “bioavailable amount after oral ingestion” value was 14%.
On to `CN(C)CCc1c[nH]c2ccc(C[C@H]3COC(=O)N3)cc12` [Zolmitriptan], for which the patch appearance result is “clear” in series [2] (4% drug load in 87-2510 matrix) and “milky” in series [2] (5% or more drug load in 87-2510 matrix). In addition, the “bioavailable amount after oral ingestion” value in series [1] is recorded as 40%. Besides, the “solubility in adhesive matrix” value in series [3] is recorded as “inadequate”. The pKa in series [4] is listed as 9.64. Also, in series [4] (in water and methanol), the solubility entry is “soluble”. Moreover, the Flux was 6.16 μg/cm^2hr in series [5] (setting [6]); 6.5 μg/cm^2hr in series [5] (setting [7]); 15.6 μg/cm^2hr in series [5] (setting [8]); 14.4 μg/cm^2hr in series [5] (setting [9]); 0.22 μg/cm^2hr in series [5] (adhesive matrix with carboxyl functional group, zolmitriptan 4 wt%); 13.5 μg/cm^2hr in series [5] (setting [10]). The Flux is on record as 14.8 μg/cm^2hr in series [5] (setting [11]); 15.8 μg/cm^2hr in series [5] (setting [12]); 18.3 μg/cm^2hr in series [5] (setting [13]); 1.2 μg/cm^2hr in series [5] (setting [14]); 6.1 μg/cm^2hr in series [5] (setting [15]); 11.7 μg/cm^2hr in series [5] (setting [16]). The Flux in series [5] (setting [17]) is listed as 14.1 μg/cm^2hr; in series [5] (setting [18]) it was 13.0 μg/cm^2hr. Besides, the Lag time in series [5] (setting [6]) was 10.7 h; in series [5] (setting [7]) it was 13.0 h; in series [5] (setting [8]), 9.3 h; in series [5] (setting [9]) it was 11.8 h; in series [5] (setting [10]), 8.2 h; in series [5] (setting [11]), 8.5 h. Further, the Lag time in series [5] (setting [12]) came out at 8.4 h; in series [5] (setting [13]), 9.0 h; in series [5] (setting [14]) it was 9.0 h; in series [5] (setting [15]), 5.5 h; in series [5] (setting [16]), 5.2 h; in series [5] (setting [17]), 7.0 h. For the same compound, the Lag time in series [5] (setting [18]) amounted to 7.4 h. Further, the “change of flux with drug loading” value in series [5] (drug loading in 87-2510 matrix increased from 4% to 10%) is reported as “did not change significantly”.
